Reference: ChEMBL document CHEMBL1201862, “PubChem BioAssay data set” (2004)
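Interpolation was linear, between the two tested concentrations surrounding the appropriate level; five concentrations were tested over 48 hours in 96-well plates. GI50 marks 50% less growth.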 Active and inactive are the calls of the source. Cut-off read from the data, not from the text of the source: active = GI50 up to about 1.1 µM and inactive = higher.

Experiments:
Assay in all cases: inhibition of tumour cell growth, NCI panel, 48 h
[1] = system: MDA-MB-435
[2] = system: DU-145
[3] = system: SN12C
[4] = system: SR
[5] = system: UACC-257
[6] = system: Hs-578T
[7] = system: ACHN
[8] = system: SNB-19
[9] = system: MDA-MB-231
[10] = system: NCI/ADR-RES
[11] = system: BT-549
[12] = system: Malme-3M
[13] = system: DMS-273
[14] = system: KM-20L2
[15] = system: M19-MEL
[16] = system: HOP-18
[17] = system: A498
[18] = system: SNB-78
[19] = system: DLD-1
[20] = system: DMS-114

Measured: GI50

CCOC(=O)C(NC(C)=O)(Nc1ccc(F)cc1)C(F)(F)F (centres undefined)
inactive: [1] 3.95 µM | [2] > 100 µM | [3] > 100 µM | [4] 24.8 µM | [5] > 100 µM | [6] > 100 µM | [7] 2.62 µM | [8] > 100 µM | [9] > 100 µM | [10] 8.13 µM | [11] > 100 µM

C=CCn1c2ccccc2c2c(C)c3cnccc3c(C)c21
inactive: [12] 13.8 µM | [13] 6.92 µM | [14] 6.75 µM | [15] 9.23 µM | [16] > 125 µM | [3] 9.1 µM | [5] 7.23 µM | [8] 12.9 µM | [17] 6.34 µM | [18] 22.3 µM | [10] 4.91 µM | [19] 7.08 µM

COC(=O)C1=C(O)C(C(=O)OC)[C@@]2(O)[C@@H](C(=O)OC)CC[C@@H]1[C@@H]2C(=O)OC (some centres undefined)
inactive: [1] 18.2 µM | [12] 21.5 µM | [2] 44.7 µM | [3] 25.4 µM | [4] 14.9 µM | [5] 27.4 µM | [6] 11.1 µM | [7] 39.2 µM | [8] 43.4 µM | [17] 16.5 µM | [9] 25.1 µM | [11] 25.5 µM

COc1cc(/C=C(/C#N)C(N)=O)ccc1O
inactive: [12] 53.6 µM | [13] > 100 µM | [14] > 100 µM | [15] > 100 µM | [16] > 40.7 µM | [3] > 100 µM | [5] > 100 µM | [8] > 100 µM | [17] > 63.2 µM | [20] > 100 µM | [18] > 100 µM | [10] > 100 µM | [19] > 100 µM

Cn1cnc(/C=C/C#N)c1
inactive: [1] > 100 µM | [12] > 100 µM | [3] > 100 µM | [4] > 100 µM | [5] > 100 µM | [7] > 100 µM | [8] > 100 µM | [17] > 100 µM | [9] > 100 µM | [10] > 100 µM | [11] > 100 µM

O=C1C(Cl)N(c2ccc(Cl)cc2Cl)C1c1c[nH]c2ccccc12 (centres undefined)
inactive: [12] > 100 µM | [14] > 100 µM | [15] > 100 µM | [3] > 100 µM | [4] 59.8 µM | [5] > 100 µM | [8] 6.01 µM | [20] > 100 µM

COc1nc(N)c(C(=O)CCl)c(=O)n1C
inactive: [12] 10.5 µM | [14] 18.3 µM | [16] 16.4 µM | [3] 17.5 µM | [4] 15.3 µM | [5] 11.5 µM | [7] 20.6 µM | [8] 17.7 µM | [17] 15.4 µM | [20] 16.8 µM | [18] 12 µM | [19] 13.2 µM

CC1(C23CC4CC(CC(C4)C2)C3)n2c(=O)n(-c3ccccc3)c(=O)n2C1(C)C12CC3CC(CC(C3)C1)C2 (centres undefined)
inactive: [1] > 100 µM | [2] > 100 µM | [3] > 100 µM | [4] > 100 µM | [5] > 100 µM | [6] 18.8 µM | [7] > 100 µM | [8] > 100 µM | [17] > 100 µM | [9] > 100 µM | [10] > 100 µM | [11] > 100 µM

COc1ccc(C(=O)c2c(-c3ccccc3NC(=O)C(F)(F)F)[nH]c3ccccc23)cc1
inactive: [1] 9.89 µM | [12] 14.4 µM | [2] 5.18 µM | [3] 14.6 µM | [4] 2.81 µM | [5] 15.6 µM | [6] 18.1 µM | [7] 3.16 µM | [8] 6.37 µM | [17] 2.17 µM | [9] 7.28 µM | [10] 8.28 µM | [11] 14.5 µM

CC1=C2C(O)C(C(C)C(=O)NCC(C)C)CCC2(C)C=CC1=O (centres undefined)
inactive: [13] > 100 µM | [14] > 100 µM | [15] > 100 µM | [16] > 100 µM | [3] > 100 µM | [5] > 100 µM | [8] > 100 µM | [17] > 100 µM | [20] > 100 µM | [18] > 100 µM | [10] > 100 µM | [19] > 100 µM

COc1cccc(NC(=O)N/C(=C/c2ccc(N(CCC#N)CCC#N)cc2)NC(=O)c2cc([N+](=O)[O-])ccc2Cl)c1
inactive: [13] > 100 µM | [14] > 100 µM | [15] > 100 µM | [16] > 100 µM | [3] > 100 µM | [4] 10.1 µM | [7] > 100 µM | [8] > 100 µM | [20] 37.2 µM | [18] > 100 µM | [19] 89.5 µM

CCOC(=O)/C(=N/Nc1ccc(C)cc1)N1C(=S)N(C)N=C(C)C=C1S
inactive: [1] > 100 µM | [2] > 100 µM | [3] > 100 µM | [4] > 100 µM | [5] > 100 µM | [6] 25.7 µM | [7] > 100 µM | [8] 69.8 µM | [9] 32.7 µM | [10] > 100 µM | [11] 23.1 µM

COc1cc2c(cc1OC)C1Cc3sccc3CN1CC2 (centres undefined)
inactive: [12] > 100 µM | [13] > 100 µM | [14] > 100 µM | [15] > 100 µM | [16] > 100 µM | [3] > 100 µM | [4] 88.9 µM | [5] > 100 µM | [7] > 100 µM | [8] > 100 µM | [20] > 100 µM | [18] > 100 µM | [19] > 100 µM

O=C1c2ccccc2OCC1/C=N/O (centres undefined)
inactive: [12] > 100 µM | [13] 99.8 µM | [15] 70.1 µM | [16] > 100 µM | [3] > 80.5 µM | [5] > 56.1 µM | [17] > 100 µM | [20] 36.4 µM | [18] > 72.9 µM | [10] > 100 µM | [19] > 91.4 µM

COc1cccc(C2c3cc4c(cc3OC(N3CCOCC3)C2C)OCO4)c1OC (centres undefined)
inactive: [1] 10 µM | [2] 3.21 µM | [3] 8.07 µM | [4] 4.75 µM | [5] 8.02 µM | [6] 4.26 µM | [7] 5.33 µM | [8] 3.81 µM | [10] 4.58 µM

COc1cc(-c2ccc(/N=N/c3ccc4c(S(=O)(=O)O)cc(S(=O)(=O)O)c(N)c4c3O)c(OC)c2)ccc1/N=N/c1ccc2c(S(=O)(=O)O)cc(S(=O)(=O)O)c(N)c2c1O
inactive: [12] > 100 µM | [13] > 100 µM | [14] > 100 µM | [15] > 100 µM | [16] > 44.3 µM | [3] > 100 µM | [5] > 100 µM | [8] > 100 µM | [17] > 100 µM | [20] > 100 µM | [18] > 100 µM | [10] > 100 µM | [19] > 100 µM
